Our source for the mutagenic call values is PubChem BioAssay AID1259407 (Chemical Carcinogenesis Research Information System (CCRIS), 2018).

The structures appear in SMILES notation. Activity calls are given as the source filed them. How the calls were made is not given here.

The data set concerns CCRIS mutagenicity, Ames/micronucleus/aberration tests. Nature of the data set: CCRIS mutagenicity studies.
The mark [1] stands for this setting: Test System: AMES SALMONELLA TYPHIMURIUM, Strain/Indicator: TA98, Metabolic Activation: NONE, Method: STANDARD PLATE.
Setting [2] is: Test System: AMES SALMONELLA TYPHIMURIUM, Strain/Indicator: TA98, Metabolic Activation: RAT, LIVER, S-9, AROCLOR 1254, Method: STANDARD PLATE.
Setting [3] is: Test System: AMES SALMONELLA TYPHIMURIUM, Strain/Indicator: TA100, Metabolic Activation: NONE, Method: STANDARD PLATE.
Setting [4] is: Test System: AMES SALMONELLA TYPHIMURIUM, Strain/Indicator: TA100, Metabolic Activation: RAT, LIVER, S-9, AROCLOR 1254, Method: STANDARD PLATE.
The mark [5] stands for this setting: Test System: AMES SALMONELLA TYPHIMURIUM, Strain/Indicator: TA98, Metabolic Activation: NONE, Method: PREINCUBATION
[6] abbreviates: Test System: AMES SALMONELLA TYPHIMURIUM, Strain/Indicator: TA100, Metabolic Activation: NONE, Method: PREINCUBATION
The mark [7] stands for this setting: Test System: AMES SALMONELLA TYPHIMURIUM, Strain/Indicator: TA102, Metabolic Activation: NONE, Method: PREINCUBATION
Where [8] appears, read: Test System: Ames Salmonella typhimurium, Strain/Indicator: TA102, Metabolic Activation: None, Method: Preincubation.
The mark [9] stands for this setting: Test System: Ames Salmonella typhimurium, Strain/Indicator: TA102, Metabolic Activation: Rat, Liver, S-9, Aroclor 1254 in 0.154 M KCl, Method: Preincubation.

For the compound `CP1(C)=NP(C)(C)=NP(C)(C)=N1`, the mutagenic call reads like this: under setting [1], “inactive; negative”; under setting [2], “inactive; negative”; under setting [3], “inactive; negative”; under setting [4], “inactive; negative”.

For the compound `CCC(C)C=O` (centres undefined), the mutagenic call under setting [5] is “inactive; negative”; the mutagenic call (Test System: AMES SALMONELLA TYPHIMURIUM, Strain/Indicator: TA98, Metabolic Activation: RAT, LIVER, S-9, AROCLOR 1254, Method: PREINCUBATION) is “inactive; negative”; the mutagenic call under setting [6] was “inactive; negative”; the mutagenic call (Test System: AMES SALMONELLA TYPHIMURIUM, Strain/Indicator: TA100, Metabolic Activation: RAT, LIVER, S-9, AROCLOR 1254, Method: PREINCUBATION) is “inactive; negative”; the mutagenic call under setting [7] was “inactive; negative”; the mutagenic call (Test System: AMES SALMONELLA TYPHIMURIUM, Strain/Indicator: TA102, Metabolic Activation: RAT, LIVER, S-9, AROCLOR 1254, Method: PREINCUBATION) is “inactive; negative”.

For the compound `CC(O)/C(=C(\c1ccccc1)c1ccc(OCCN(C)C)cc1)c1ccccc1` (centres undefined), the mutagenic call is “inactive; negative” (Test System: CHINESE HAMSTER V-79, Strain/Indicator: V79HHST (HPRT)/6-THIOGUANINE, Metabolic Activation: NONE) and “active; positive” (Test System: CHINESE HAMSTER V-79, Strain/Indicator: V79RHST (HPRT)/6-THIOGUANINE, Metabolic Activation: NONE).

Turning to `CC(=O)Nc1ccc(/C=C/C(=O)c2ccccc2)cc1`, the mutagenic call is “inactive; negative” under setting [1], “active; positive” under setting [2], “active; positive” under setting [3] and “active; positive” under setting [4].

In the case of `[Cl][Pb][Cl]`, the mutagenic call is, setting by setting: (End Point: IN VITRO MICRONUCLEUS, Test System: HAMSTER V79 CELLS, Metabolic Activation: NONE) “active; positive (aneugenic above 1.1 um)”; (Test System: CHINESE HAMSTER OVARY, Strain/Indicator: CHO-AS52/6-THIOGUANINE, Metabolic Activation: NONE) “active; positive”; (Test System: CHINESE HAMSTER V-79, Strain/Indicator: SP5 V-79 (HPRT)/6-THIOGUANINE, Metabolic Activation: NONE, Method: STANDARD PLATE) “inactive; negative”; (Test System: CHINESE HAMSTER V-79, Strain/Indicator: SPD8 V-79 (HPRT)/6-THIOGUANINE, Metabolic Activation: NONE, Method: STANDARD PLATE) “inactive; negative”.

As for `CCCCOc1cc([N+](=O)[O-])ccc1C(=O)NOC(C)=O`, the mutagenic call runs as follows: under setting [3], “active; positive”; (Test System: AMES SALMONELLA TYPHIMURIUM, Strain/Indicator: TA100, Metabolic Activation: RAT S9, AROCLOR, Method: STANDARD PLATE) “active; positive”.

For the compound `Cc1ccc2cc3ccc4ccccc4c3nc2c1`, the mutagenic call is “inactive; negative” (Test System: AMES SALMONELLA TYPHIMURIUM, Strain/Indicator: TA97A, Metabolic Activation: NONE, Method: PREINCUBATION); “inactive; negative” under setting [5]; “active; positive” under setting [6]; “inactive; negative” under setting [7].

For the compound `Cc1ccc(N(O)C=O)cc1`, the mutagenic call under setting [1] was “inactive; negative”, the mutagenic call under setting [2] is “active; positive”, the mutagenic call under setting [3] is “inactive; negative” and the mutagenic call under setting [4] is “active; positive”.

Take `Nc1ccc2c(c1)[nH]c1ccccc12`: the mutagenic call by setting is: under setting [1], “active; positive”; (Test System: AMES SALMONELLA TYPHIMURIUM, Strain/Indicator: TA98, Metabolic Activation: RAT, LIVER, S-9, PHENOBARBITAL, Method: STANDARD PLATE) “active; positive”; under setting [3], “inactive; negative”; (Test System: AMES SALMONELLA TYPHIMURIUM, Strain/Indicator: TA100, Metabolic Activation: RAT, LIVER, S-9, PHENOBARBITAL, Method: STANDARD PLATE) “active; positive”; (Test System: AMES SALMONELLA TYPHIMURIUM, Strain/Indicator: TA1537, Metabolic Activation: NONE, Method: STANDARD PLATE) “inactive; negative”; (Test System: AMES SALMONELLA TYPHIMURIUM, Strain/Indicator: TA1538, Metabolic Activation: NONE, Method: STANDARD PLATE) “active; positive”. Moreover, the mutagenic call reads like this: (Test System: AMES SALMONELLA TYPHIMURIUM, Strain/Indicator: TA1538, Metabolic Activation: RAT, LIVER, S-9, PHENOBARBITAL, Method: STANDARD PLATE) “active; positive”; (Test System: AMES SALMONELLA TYPHIMURIUM, Strain/Indicator: TA1977, Metabolic Activation: NONE, Method: STANDARD PLATE) “inactive; negative”; (Test System: AMES SALMONELLA TYPHIMURIUM, Strain/Indicator: TA1977, Metabolic Activation: RAT, LIVER, S-9, PHENOBARBITAL, Method: STANDARD PLATE) “inactive; negative”.

As for `CNC(=O)Oc1ccccc1`, the mutagenic call reads like this: under setting [2], “inactive; negative”; (Test System: AMES SALMONELLA TYPHIMURIUM, Strain/Indicator: TA1535, Metabolic Activation: RAT, LIVER, S-9, AROCLOR 1254, Method: STANDARD PLATE) “inactive; negative”.

Turning to `Oc1cc(O)cc(/C=C/c2ccc(O)c(O)c2)c1`, the mutagenic call was “inactive; negative” under setting [8] and “inactive; negative” under setting [9].

`CCN(O)CC`: the mutagenic call (Test System: UDS HUMAN LYMPHOCYTES, Strain/Indicator: THY INCORP (NON-S-PHASE), Metabolic Activation: NONE, Method: LIQUID SCINTILLATION COUNTING) is “active; positive”.

For the compound `O=C(/C=C/c1ccc(O)cc1)c1ccc(O)cc1O`, the mutagenic call is “inactive; negative” under setting [8] and “active; positive” under setting [9].

With `C[C@@H]1COc2c(N3CCN(C)CC3)c(F)cc3c(=O)c(C(=O)O)cn1c23`, the mutagenic call is, setting by setting: under setting [5], “inactive; negative”; (Test System: AMES SALMONELLA TYPHIMURIUM, Strain/Indicator: TA98, Metabolic Activation: RAT, LIVER, S-9, PHENOBARBITAL AND BETA-NAPHTHOFLAVONE, Method: PREINCUBATION) “inactive; negative”; under setting [6], “inactive; negative”; (Test System: AMES SALMONELLA TYPHIMURIUM, Strain/Indicator: TA100, Metabolic Activation: RAT, LIVER, S-9, PHENOBARBITAL AND BETA-NAPHTHOFLAVONE, Method: PREINCUBATION) “inactive; negative”; (Test System: AMES SALMONELLA TYPHIMURIUM, Strain/Indicator: TA1535, Metabolic Activation: NONE, Method: PREINCUBATION) “inactive; negative”; (Test System: AMES SALMONELLA TYPHIMURIUM, Strain/Indicator: TA1535, Metabolic Activation: RAT, LIVER, S-9, PHENOBARBITAL AND BETA-NAPHTHOFLAVONE, Method: PREINCUBATION) “inactive; negative”. Also, the mutagenic call (Test System: AMES SALMONELLA TYPHIMURIUM, Strain/Indicator: TA1537, Metabolic Activation: NONE, Method: PREINCUBATION) is “inactive; negative”; the mutagenic call (Test System: AMES SALMONELLA TYPHIMURIUM, Strain/Indicator: TA1537, Metabolic Activation: RAT, LIVER, S-9, PHENOBARBITAL AND BETA-NAPHTHOFLAVONE, Method: PREINCUBATION) was “inactive; negative”; the mutagenic call (Test System: E.COLI, Strain/Indicator: WP2 UVRA, Metabolic Activation: NONE, Method: PREINCUBATION) is “inactive; negative”; the mutagenic call (Test System: E.COLI, Strain/Indicator: WP2 UVRA, Metabolic Activation: RAT, LIVER, S-9, PHENOBARBITAL AND BETA-NAPHTHOFLAVONE, Method: PREINCUBATION) is “inactive; negative”.

Turning to `ClC[C@H]1CO1`, the mutagenic call is, setting by setting: under setting [6], “active; positive”; under setting [3], “active; positive”; (Test System: AMES SALMONELLA TYPHIMURIUM, Strain/Indicator: TA100, Metabolic Activation: RAT, LIVER, S-9, PCB, Method: PREINCUBATION) “active; positive”.
